Assay results reported in US8821836B2, “SPARC binding peptides and uses thereof” (Abraxis BioScience, LLC, priority 2008, dated 2014).
Entries after “also recorded” stand apart in the source; their conditions may differ.

Tests used:
[1] = test system: sections of a human brain tumor (SPARC expressing tumor); experiment: Immunohistochemical staining of tumor sections; details: IHC, FIGS. 10 and 11
Source text: FIGS. 10 and 11 show the co-localization of SPARC (as indicated by immunohistochemical (IHC) staining with an anti-SPARC antibody) and the binding of PD 15 and PD 21 in sections of a human brain tumor (which have been epitope tagged for IHC staining.).

[2] = test system: HT29 colon xenograft; experiment: Antitumor activity in HT29 xenograft model; assay type: in vivo, mouse; details: FIG. 14
[3] = test system: non-SPARC proteins in 5,000 proteins on the array; experiment: Protein microarray analysis (Invitrogen ProtoArray v.3), off target binding
Source text: FIG. 8 depicts the Protoarray used to define off target binding of PD 15 and PD21.

[4] = biological target: T1, SPARC (Homo sapiens, UniProt P09486); experiment: Concentration dependent binding ELISA; details: for binding to SPARC compared with anti-SPARC antibody: ELISA, FIG. 9
T1 sequence (P09486 18-303): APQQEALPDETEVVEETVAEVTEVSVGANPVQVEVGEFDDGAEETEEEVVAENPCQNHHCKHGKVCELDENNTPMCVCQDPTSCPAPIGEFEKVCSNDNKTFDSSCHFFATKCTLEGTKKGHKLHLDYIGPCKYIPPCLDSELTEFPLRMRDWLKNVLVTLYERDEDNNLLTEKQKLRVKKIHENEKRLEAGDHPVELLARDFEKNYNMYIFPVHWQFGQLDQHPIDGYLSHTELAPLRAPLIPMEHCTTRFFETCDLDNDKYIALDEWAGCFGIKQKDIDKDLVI

[5] = test system: PC3 prostatecarcinoma xenograft; experiment: Antitumor activity in PC3 xenograft model; assay type: in vivo, nude mouse; details: for tumor growth inhibition: FIG. 13
Experimental: FIG. 13 depicts the antitumor activity of PD 15 and PD 21 in a human prostate cancer/nude mouse model system.
The PD 15 and PD 21-Fc fusion proteins were assayed for antitumor activity in a murine-human PC3 prostatecarcinoma xenograft model.

Substance: VTPLLKFRALSS [PD 21]
- binding to / staining of tumor tissue [1]: binding
- antitumor activity, comparison [2]: better antitumor activity than PD 15; also recorded: activity closely equivalent to Abraxane
- cross reactivity with non-SPARC proteins [3]: only minimal cross reactivity
- binding to SPARC compared with anti-SPARC antibody [4]: only slightly weaker than that of an anti-SPARC antibody

Substance: PD 15-Fc: fusion protein of SPARC binding peptide PD 15 with human IgG1 Fc domain (pFUSE-hIgG1-Fc2 vector) (YTRLHHWIPPQR)
- tumor growth inhibition [5]: statistically significant tumor growth inhibition

Substance: YTRLHHWIPPQR [PD 15]
- binding to / staining of tumor tissue [1]: binding
- antitumor activity, comparison [5]: better antitumor activity than PD21
- cross reactivity with non-SPARC proteins [3]: only minimal cross reactivity
- affinity for SPARC, PD 15 versus PD 21 ([4]; ELISA and IHC experiments): higher affinity for SPARC than PD 21
- binding to SPARC compared with anti-SPARC antibody [4]: only slightly weaker than that of an anti-SPARC antibody

Substance: PD 21-Fc: fusion protein of SPARC binding peptide PD 21 with human IgG1 Fc domain (pFUSE-hIgG1-Fc2 vector) (VTPLLKFRALSS)
- tumor growth inhibition [5]: statistically significant tumor growth inhibition
